Results taken from ChEMBL document CHEMBL4138063, “Discovery of Decamidine as a New and Potent PRMT1 Inhibitor” (Medchemcomm, 2017).
Calls of active or inactive are those of the source. The calls are words filed in the database; no cut-off is given here.

Assays:
[1] = biological target: T1, Protein arginine N-methyltransferase 5 (Homo sapiens, UniProt O14744); test: Inhibition of PRMT5 (unknown origin) assessed as reduction in methyl transfer from [3H]-SAM to biotinylated histone H4 peptide H4-20-Biotin at 10 uM pre-incubated for 3 mins before [3H]-SAM addition and measured after 45 mins by scintillation proximity assay
T1 sequence (O14744 whole entry): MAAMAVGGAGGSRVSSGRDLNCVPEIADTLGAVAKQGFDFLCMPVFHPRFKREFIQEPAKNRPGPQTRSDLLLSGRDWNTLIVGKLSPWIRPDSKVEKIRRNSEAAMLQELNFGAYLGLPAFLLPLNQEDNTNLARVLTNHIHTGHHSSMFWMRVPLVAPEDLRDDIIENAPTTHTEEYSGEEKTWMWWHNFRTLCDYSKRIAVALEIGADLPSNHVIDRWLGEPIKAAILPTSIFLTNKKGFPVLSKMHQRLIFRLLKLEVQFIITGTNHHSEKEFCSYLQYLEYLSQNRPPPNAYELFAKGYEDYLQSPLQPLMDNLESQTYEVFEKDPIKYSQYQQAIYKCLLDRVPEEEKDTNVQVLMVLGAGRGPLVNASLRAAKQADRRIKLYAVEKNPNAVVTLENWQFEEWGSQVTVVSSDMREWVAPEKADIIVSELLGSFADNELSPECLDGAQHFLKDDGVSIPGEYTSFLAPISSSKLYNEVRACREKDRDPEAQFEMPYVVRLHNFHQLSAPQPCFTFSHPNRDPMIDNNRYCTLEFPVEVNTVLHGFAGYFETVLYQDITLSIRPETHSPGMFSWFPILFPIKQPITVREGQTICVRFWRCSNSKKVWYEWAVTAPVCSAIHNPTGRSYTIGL

[2] = biological target: T1, Protein arginine N-methyltransferase 5; test: Inhibition of PRMT5 (unknown origin) assessed as reduction in methyl transfer from [3H]-SAM to biotinylated histone H4 peptide H4-20-Biotin at 100 uM pre-incubated for 3 mins before [3H]-SAM addition and measured after 45 mins by scintillation proximity assay
[3] = biological target: Protein arginine N-methyltransferase 1 (Homo sapiens, UniProt Q99873); test: Inhibition of PRMT1 (unknown origin) assessed as reduction in methyl transfer from [3H]-SAM to biotinylated histone H4 peptide H4-20-Biotin at 10 uM pre-incubated for 3 mins before [3H]-SAM addition and measured after 15 mins by scintillation proximity assay
Protein arginine N-methyltransferase 1, sequence (Q99873 whole entry): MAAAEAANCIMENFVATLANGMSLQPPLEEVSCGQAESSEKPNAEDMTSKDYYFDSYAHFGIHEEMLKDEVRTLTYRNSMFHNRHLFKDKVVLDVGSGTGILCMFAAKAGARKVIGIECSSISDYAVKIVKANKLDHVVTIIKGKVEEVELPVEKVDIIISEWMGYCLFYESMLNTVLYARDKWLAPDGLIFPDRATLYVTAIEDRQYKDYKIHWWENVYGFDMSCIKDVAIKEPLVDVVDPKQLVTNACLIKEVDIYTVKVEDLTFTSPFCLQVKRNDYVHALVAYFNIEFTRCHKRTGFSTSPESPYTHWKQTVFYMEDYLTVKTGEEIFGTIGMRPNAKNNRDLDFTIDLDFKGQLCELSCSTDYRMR

[4] = biological target: T1, Protein arginine N-methyltransferase 5; test: Inhibition of PRMT5 (unknown origin) assessed as reduction in methyl transfer from [3H]-SAM to biotinylated histone H4 peptide H4-20-Biotin pre-incubated for 3 mins before [3H]-SAM addition and measured after 45 mins by scintillation proximity assay

SMILES | inhibition [1] | inhibition [2] | IC50 [3] [µM] | IC50 [4] [µM]
N=C(N)c1ccc(OCCCCOc2ccc(C(=N)N)cc2)cc1 | inactive | inactive | – | –
N=C(N)c1ccc(OCCOc2ccc(C(=N)N)cc2)cc1 | inactive | inactive | – | –
N=C(N)c1ccc(-c2ccc(-c3ccc(C(=N)N)cc3)o2)cc1 [FURAMIDINE] | – | 50% | 22 | 256
N=C(N)c1ccc(Oc2ccc(C(=N)N)cc2)cc1 | inactive | inactive | – | –
N=C(N)c1ccc(OCCCCCCOc2ccc(C(=N)N)cc2)cc1 [HEXAMIDINE] | inactive | inactive | – | 357
N=C(N)c1ccc(/C=C/c2ccc(C(=N)N)cc2)cc1 [STILBAMIDINE] | – | – | – | 712
N=C(N)c1ccc(OC/C=C/COc2ccc(C(=N)N)cc2)cc1 | inactive | inactive | – | –
N=C(N)c1ccc(OCCCOc2ccc(C(=N)N)cc2)cc1 | inactive | inactive | – | –
N=C(N)c1ccc(OCCCCCCCCCCOc2ccc(C(=N)N)cc2)cc1 | – | 50% | – | 43
N=C(N)c1ccc(OCOc2ccc(C(=N)N)cc2)cc1 | – | 50% | – | –
CC(CCCOc1ccc(C(=N)N)cc1)Oc1ccc(C(=N)N)cc1 (configuration not stated) | inactive | inactive | – | –
